Experimental findings from a melting point compilation (Tetko et al.; mined from patent text by program, amines drawn as free bases though some values may be those of a salt) are described below.

What is called melting point is the temperature of the solid-liquid transition.

`CN(C(=O)c1cccc(S(=O)(=O)N(C)c2ccc(Br)cc2)c1)c1ccc(Cl)cc1F` displayed a melting point of 127 to 128 °C.
In the case of `C[C@@H](NC(=CC(=O)OC(C)(C)C)Cc1cc(F)c(F)cc1F)c1ccccc1`, the melting point is 76 °C.
Molecule `C#Cc1ccc(Br)c(C(F)(F)F)c1` displayed a melting point of less than 50 °C.
Regarding `Cc1ccc(S(=O)(=O)n2ccc3c2CC(c2ccccc2)CC3=O)cc1` (stereo unspecified), the melting point was in the range of 118 to 120 °C.
`CS(=O)(=O)c1ccc(CC(=O)c2ccc(F)cc2)cc1` had a melting point of 182 to 183 °C.
The molecule `CCCC1=C(C(=O)OCC)C(c2ccccc2S(C)=O)c2c[nH]nc2N1` (stereo unspecified) yielded a melting point of 216 °C.
The molecule `COc1cccc(C2OCCC(C)(C)C2(O)C(C)C)c1` (stereo unspecified) had a melting point of 56 to 56.9 °C.
`CCc1c(C)nc2c(O)cccn2c1=O` returned a melting point of 128 °C.
`COc1ccc(/C(=C/C(=O)N2CCN(C(=O)c3cc(OC)c(OC(C)=O)c(OC)c3)CC2)c2ccccc2Cl)cc1` came in with a melting point of 191 to 194 °C.
`C=C1CCc2c(N3CCC(O)C3)c(F)cc3c(=O)c(C(=O)O)cn1c23` (stereo unspecified): the melting point lay in the range of 190 to 196 °C.
Under `O=C(O)c1ccccc1COc1ccc(CCCO)cc1` stands 139 to 140 °C; under `CCC(C)CNc1cccc(-c2ccnc3c(C(=O)c4cccs4)cnn23)c1` (stereo unspecified), 210 to 212 °C.
Under `COc1ccc(C2NCCS2)cc1OC` (stereo unspecified) stands 54 to 56 °C.
For `CCCc1ccc2nc(N)sc2c1`, the melting point was in the range of 120 to 122 °C.
`N=C(Nc1ccccc1)Nc1nc(-c2ccccc2)cs1` had a melting point of 179 to 180 °C.
Under `CSc1[nH]n(C2CCCC2)c2nc(-c3ccncc3)nc(=O)c1-2` stands 272 to 274 °C; under `O=c1c2c(Cl)cc(Cl)cc2n(Cc2ccccc2)c(=O)n1Cc1cccc2ccccc12`, 220 to 226 °C; under `CCCCN(c1cccc(-c2ccnc3c([N+](=O)[O-])cnn23)c1)S(C)(=O)=O`, 153 to 155 °C.
For `CCOC(=O)c1cnc2c(-c3cccc(Cl)c3)cnn2c1Cl` the value was 140 to 141 °C.
As to `Cc1nsc(Br)c1S(N)(=O)=O`, the melting point is 148 to 150 °C.
The molecule `O=C(O)c1ccc(-c2ncn(-c3ccc(C(F)(F)C(F)(F)C(F)(F)F)cc3)n2)cc1` registered a melting point of 225 °C.
`CCCc1c(C(=O)C(C)C)c2ccc(C(N)=O)cc2n1Cc1ccc(Br)cc1Cl` had a melting point of 199 to 201 °C.
As to `N#Cc1ccc(CC[C@H]2CC[C@H](CO)CC2)cc1`, the melting point was in the range of 119 to 121 °C.
For the molecule `C[C@H]1CCCN(CCCOc2ccc(-c3nc4cccnc4c(=O)n3C)cc2)C1`, the melting point was 83.5 to 88.5 °C.
For the molecule `CN(C)c1ccc(-c2ccc3c(c2)CC[C@H]2N(C)C(=O)CC[C@]32C)cc1`, the melting point lay within 197 to 202 °C.
Under `O=c1cc(O)c2ccc(F)cc2o1` stands 229 to 230 °C; under `CCc1cc(-c2ccc(NC(=O)N3CCc4cc(SC)c(C(F)(F)F)cc43)cc2)ccn1`, 158 to 161 °C.
`OC1CSC(Oc2cc(-c3ccnc(F)c3)ccc2Cl)C(O)C1O` (stereo unspecified) gave a melting point of 162 °C.
In turn, `CN1Cc2c(I)ncn2-c2ccccc2C1=O` showed a melting point of 174 to 176 °C.
The molecule `O=S(=O)(Nc1ccc2c(OCc3ccc(Br)cc3F)cccc2c1)C(F)(F)F` gave a melting point of 123 to 125 °C.
In turn, `O=C(O)Cc1ccc2ncsc2c1` yielded a melting point of 147 to 149 °C.
Under `O=C(O)CCCCCOc1nc(-c2ccccc2)c2ccccc2n1` stands 112 to 114 °C.
Under `N#CC(N)(N)c1cccnc1` stands 158 °C.
In the case of `CCN(CC)CCCOc1ccc(-c2cc3ccccc3o2)cc1`, the melting point lay in the range of 86 to 88 °C.
In turn, `CCOC(=O)c1c(SCC(=O)COC(C)=O)nc2c(F)c(F)c(F)cc2c1O` yielded a melting point of 175 to 180 °C.
`CN(C)C1CCCCC1Oc1ccc(Cc2c(-c3ccc(OCCN4CCCC4)cc3)sc3cc(O)ccc23)cc1` (stereo unspecified) came in with a melting point of 95 to 98 °C.
For the molecule `CC(=NNc1ccc([N+](=O)[O-])cc1)N1CCOCC1`, the melting point was 176 °C.
For `O=C(Nc1ccccc1)c1ccccc1Cl` the value was 96.4 to 98.3 °C.
As for `CC(=O)SCC(Cc1ccccc1)C(=O)Nc1cc(C(=O)O)ccc1C` (stereo unspecified), the melting point was in the range of 214 to 216 °C.
Under `OCc1cccc2sc(-c3ccccc3)nc12` stands 116 to 117 °C; under `NCC1c2ccccc2C=Cc2ccccc21`, 95 to 96.5 °C.
`COc1ccc2c(=O)c(-c3ccc(C)cc3)c(SCc3ccncc3)oc2c1` gave a melting point of 157 to 160 °C.
`COc1cccc(Nc2c(N)cc(C(=O)O)cc2S(N)(=O)=O)c1` registered a melting point of 232 to 234 °C.
For `COC(=O)C=C1NCCOC1=O` the value was 76 to 79 °C; for `COc1ccc(Br)c(OC)c1-c1ccc(C[C@H](NC(=O)c2c(Cl)cccc2Cl)C(=O)O)cc1`, 205 to 206 °C.
For the molecule `CS(=O)(=O)c1ccc(-c2cc(C(=O)CCCO[N+](=O)[O-])nn2-c2ccc(Cl)cc2)cc1`, the melting point lay within 131 to 132 °C.
In turn, `CCCCOc1cc2c(cc1OC)C(c1ccc(OC)c(OC)c1)=NN=C(C)C2CC` (stereo unspecified) gave a melting point of 147 to 150 °C.
`O=[N+]([O-])c1c(Cl)cc(-c2n[nH]cc2Cl)cc1Cl` gave a melting point of 177 °C.
For `CCc1ccc(-n2c(-c3ccccn3)nc(SC)c(C#N)c2=O)cc1` the value was 172 to 175 °C; for `COc1cc(C=C[N+](=O)[O-])ccc1OCc1cccc2ccccc12`, 120 to 123 °C; for `CC(CCCc1ccccc1)Oc1cc(O)c2c(c1)NCCC2=O` (stereo unspecified), 88 to 90 °C.
In turn, `COc1ccc(C2(c3ccc(OC)cc3)CC(C)N=C2NC(=O)c2cc(C)[nH]n2)cc1` (stereo unspecified) gave a melting point of 173 °C.
Consider `COC(=O)CCCS(=O)(=O)c1ccc(C)cc1`, for which the melting point is 23 °C.
With `COc1ccc(CN2CCC(c3cn(Cc4ccc(Cl)s4)c4cc(F)ccc34)CC2)cc1C(=O)O`, the melting point was 232 to 236 °C.
In turn, `COc1ccc(CC(=O)Nc2c(C)c(C)c3c(c2C)C(c2ccc(C(C)C)cc2)CO3)cc1` (stereo unspecified) showed a melting point of 166 to 167 °C.
`CCc1nc2c(N)nc(C)c(C)c2n1CCOCCNC(=O)NS(=O)(=O)c1ccccc1`: the melting point was 201 to 203 °C.
Under `CS(=O)c1c(C=NO[Si](C)(C)C(C)(C)C)nn(-c2c(Cl)cc(C(F)(F)F)cc2Cl)c1N` (stereo unspecified) stands 150 to 154 °C; under `COc1cc(C(=O)O)ccc1Cc1cccc2ccc(C(=O)NCC(C)C)cc12`, 254 °C.
Molecule `Cc1cccc2ncc(-c3nnnn3C)c(=O)n12` had a melting point of 232 to 234 °C.
`O=C(CC1CCCCC1=O)c1ccc(Br)cc1` (stereo unspecified) returned a melting point of 78 to 80 °C.
In turn, `CCNc1ccc(N2CCOC2=O)cc1[N+](=O)[O-]` showed a melting point of 140 °C.
Under `Clc1ccc2nc(CN3CCN(c4ccccc4Cl)CC3)cn2c1` stands 123 to 124 °C; under `COc1cc2ncnc(N3CCN(C(=O)Nc4cc(Cl)nc(Cl)c4)CC3)c2cc1OC`, 267 to 270 °C.
For `O=C(O)C1=CSC2CC(=O)N12` (stereo unspecified) the value was 235 °C; for `Cc1cc(C2CCN(S(=O)(=O)C3(C(=O)NO)CCN(C(=O)OC(C)(C)C)CC3)CC2)ccc1-c1cccc(OCCO)n1`, 180 to 181 °C.
Under `NCc1ccc(CNc2ncc3ncnc(Nc4ccc(F)c(Cl)c4)c3n2)cc1` stands 211 to 213 °C; under `Nc1ncnc2c1c(-c1ccc(Oc3ccccc3)cc1)cn2C1CCNC1` (stereo unspecified), 182 to 184 °C.
Take `CS(=O)(=O)c1ccc(-c2cnn(CC(F)(F)F)c(=O)c2NC2CCc3ccccc32)cc1` (stereo unspecified): the melting point was in the range of 155 to 158 °C.
In turn, `COc1ccc2c(=O)c3c(Cl)ccc([N+](=O)[O-])c3oc2c1` registered a melting point of 211 to 213 °C.
Under `CC(=O)Nc1nc(OCC(C)C)c2nc(Cl)ccc2n1` stands 168 °C; under `O=C1NC(=O)C(c2ccc3c(c2)CCCC3)S1` (stereo unspecified), 157 to 158 °C.
For `COc1cccc(CCNC2(c3ccccc3Cl)C(=O)Nc3ccc(Cl)cc32)c1` (stereo unspecified) the value was 155 to 160 °C; for `COc1ccc(CNc2nc(CCCC(=O)O)nc3sc(Cl)cc23)cc1Cl`, 114 °C; for `OC(Cc1ccc(Cl)cc1Cl)(Cn1cnnc1)c1ccc(-c2ccccc2)cc1` (stereo unspecified), 260 °C.
In turn, `CCc1c2c(nn1CC)c(N)nc1ncccc12` returned a melting point of 286 to 288 °C.
In turn, `COc1cccc(CNC(=O)c2nc3ccc(C#N)cc3c(=O)[nH]2)c1` came in with a melting point of 206 to 208 °C.
Regarding `CSc1ccc(-c2nc(S)[nH]c2-c2ccc(SC)cc2)cc1`, the melting point is 280 °C.
For `CC(OC(=O)OC1CCCCC1)OC(=O)C1(C(=O)OC(C)OC(=O)OC2CCCCC2)Oc2ccc(C[C@@H](C)NC[C@H](O)c3cccc(Cl)c3)cc2O1` (stereo partly specified), the melting point lay within 78 to 81 °C.
For the molecule `CN(C)CCCNc1ncc2c(n1)-c1ccccc1C(c1ccc(Cl)c(Cl)c1)C2` (stereo unspecified), the melting point is 59 to 62 °C.
For the molecule `FC(F)(F)Oc1ccc(-n2cnc(-c3ccc(/C=N/NC(=S)Nc4ccccc4C4CCCC4)cc3)n2)cc1`, the melting point lay in the range of 213 to 216 °C.
`CCCCCCCc1[nH]c2cc(C(=O)OC)ccc2c1C=O` displayed a melting point of 177 to 180 °C.
For `Cc1sc(C(N)=O)c2c1-c1c(cnn1CC(F)(F)F)CC2` the value was 144 to 145 °C.
For `c1ccc(CCNc2nccc3ccccc23)cc1` the value was 110 to 112 °C; for `C1=NNSc2ccccc21`, 314 °C; for `O=C1NCC=NN1c1cc(C(F)(F)F)cc(Cl)n1`, 197 to 198 °C.
Regarding `COc1ccc(NC(=O)c2cccc(OC)c2N)cc1`, the melting point lay within 168 to 169 °C.
For `CC(C)Oc1cccc(CC(=O)OCc2c(-c3ccccc3)c3cc(Cl)ccc3c(=O)n2C)c1` the value was 130 to 132 °C; for `Cc1cc(-c2cc3cc(OCCNC[C@H](O)COc4ccccc4F)ccc3o2)no1`, 118 to 121 °C; for `C=CC(=O)Nc1cccc2cccnc12`, 76.5 to 78.5 °C.
`O=C(CCc1ccc2ccccc2n1)NO` showed a melting point of 159 to 160 °C.
For the molecule `CCN(CC)C(=O)Cn1c(-c2ccc(C(F)(F)F)cc2)nc2cccnc21`, the melting point is 140 to 142 °C.
